Measured values from publication PMC10578352, “Identification of a Protein Arginine Methyltransferase 7 (PRMT7)/Protein Arginine Methyltransferase 9 (PRMT9) Inhibitor” (Journal of Medicinal Chemistry, 2023).

Molecular target: T1, GST-HsPRMT7 (Homo sapiens, UniProt Q9NVM4)
T1 construct: made in house; host or cells: E. coli
T1 sequence (Q9NVM4 1-692): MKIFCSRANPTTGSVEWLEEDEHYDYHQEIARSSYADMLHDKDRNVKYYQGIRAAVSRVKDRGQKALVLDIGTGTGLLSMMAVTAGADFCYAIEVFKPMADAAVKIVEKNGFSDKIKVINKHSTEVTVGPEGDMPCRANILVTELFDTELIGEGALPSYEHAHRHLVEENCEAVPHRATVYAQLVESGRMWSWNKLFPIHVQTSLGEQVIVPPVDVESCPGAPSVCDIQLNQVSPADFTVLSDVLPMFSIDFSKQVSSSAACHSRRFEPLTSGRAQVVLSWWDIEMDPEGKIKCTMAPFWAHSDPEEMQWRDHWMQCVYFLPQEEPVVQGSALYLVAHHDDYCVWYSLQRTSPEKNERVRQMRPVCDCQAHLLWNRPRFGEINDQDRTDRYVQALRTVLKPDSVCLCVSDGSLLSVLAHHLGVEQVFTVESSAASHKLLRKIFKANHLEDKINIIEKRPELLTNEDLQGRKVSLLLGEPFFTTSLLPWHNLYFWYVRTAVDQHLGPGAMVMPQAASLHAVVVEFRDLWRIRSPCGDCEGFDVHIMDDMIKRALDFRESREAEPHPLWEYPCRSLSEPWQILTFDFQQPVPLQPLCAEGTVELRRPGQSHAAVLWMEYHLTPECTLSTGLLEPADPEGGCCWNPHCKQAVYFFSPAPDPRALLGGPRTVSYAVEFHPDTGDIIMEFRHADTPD
Assay: Radioisotope-based assay (SDS-PAGE, fluorography, densitometry), HsPRMT7
Assay type: biochemical
Details: substrate HsH2B, 15 °C, read-out: % HsPRMT7 residual activity
Experimental: Based on these outcomes, we resolved to explore the effect on the capability to inhibit PRMT9 enzymatic activity of further reduction of the distance between the pharmacophoric moieties. […] After the experiment was repeated with 100, 250, and 500 μM concentrations of each inhibitor, half inhibition was observed only at a concentration of roughly 250 μM (Figure 4d).
[…]. The experiments were performed as reported in the Experimental procedures section. GST-HsPRMT9 (a) and GST-HsPRMT7 (b) were incubated with human GST-SF3B2 (401–550) peptide or recombinant HsH2B, respectively (1 μg of enzyme, 5 μg of substrate), 0.14 μM [^3H]SAM, and the indicated concentrations of tested compounds at the corresponding optimal reaction temperature (37 °C for HsPRMT9, 15 °C for HsPRMT7). C. elegans GST-tagged enzymes PRMT9 (c) and PRMT7 (d) were incubated with GST-CeSFTB-2 (99–248) fragment or recombinant HsH2B, respectively (1 μg of enzyme, 5 μg of substrate), 0.14 μM [^3H]SAM, and the indicated concentrations of tested compounds at the corresponding optimal reaction temperature (25 °C for CePRMT9, 15 °C for CePRMT7). After SDS-PAGE, the gels were treated as previously described[48] and densitometry analysis was done using ImageJ software, and data was plotted as normalized activity to the no inhibitor controls.
Human PRMT9, C. elegans PRMT9, human PRMT7, and C. elegans PRMT7 plasmids were sequenced, expressed in E. coli as GST-fusion proteins, and purified as previously described.[48] Substrates were also sequenced and purified as described [human GST-SF3B2 (401–550);[13]C. elegans SFTB-2;[48] human histone H2B (New England Biolabs, M2505S)]. Xenopus laevis histone H2B was expressed in E. coli and purified similarly to what was previously reported by Luger et al.[72]
Reactions consisting of approximately 1 μg of enzyme (human or C. elegans GST-tagged enzymes PRMT9 and PRMT7), reacted with approximately 5 μg of substrate [for human PRMT9, human GST-SF3B2 401–550 fragment; C. elegans PRMT9 with C. elegans GST-SFTB-2 (99–248) fragment, or recombinant human histone H2B from New England Biolabs (M2505S)], were incubated for the indicated time in reaction buffer {50 mM potassium HEPES buffer, 10 mM NaCl, 1 mM dithiothreitol (DTT), pH 8.0 with 0.7 μM S-adenosyl-L-[methyl-^3H]methionine (^3H-AdoMet, PerkinElmer Life Sciences, 82.7 Ci/mmol, 0.55 mCi/mL in 10 mM H2SO4/EtOH [9:1 (v/v)])} in a final reaction volume of 60 μL. Each reaction was incubated at the corresponding optimal reaction temperature (37 °C for human PRMT9, 25 °C for C. elegans PRMT9, and 15 °C for C. elegans and human PRMT7 enzymes. MTA was dissolved in water, and a wavelength scan was taken to determine the final concentration using the extinction coefficient. The final concentrations used are indicated in the figure legends. […]. EML734, EML736, and EML709 were also dissolved in DMSO, and further dilutions were made in DMSO for the working stocks. For controls, no inhibitor reactions were created by the addition of the respective solvent (water for MTA and DMSO for EPZ015666 and EML inhibitors).
After the reaction incubations with the various concentrations of inhibitors, the reactions were quenched by adding 0.2 volume of 5× SDS sample loading buffer, and subsequently, the reactions were run on a 12.6% polyacrylamide Tris gel. To collect the radioactive signal, the gels were then treated in the same way as previously described.[48] […]

SMILES	remaining activity at 100 µM [%]
COC(=O)c1cc(O)c2cc(NC(=O)NCCCCCNC(=N)NC[C@H]3O[C@@H](n4cnc5c(N)ncnc54)[C@H](O)[C@@H]3O)ccc2c1 [1c]	0.03
COC(=O)c1cc(O)c2cc(NC(=O)NCCCNC(=N)NC[C@H]3O[C@@H](n4cnc5c(N)ncnc54)[C@H](O)[C@@H]3O)ccc2c1 [1a]	0.5
COC(=O)c1cc(O)c2cc(NC(=O)NCCCCNC(=N)NC[C@H]3O[C@@H](n4cnc5c(N)ncnc54)[C@H](O)[C@@H]3O)ccc2c1 [1b]	8.27
